# Laboratory results: US20190248834A1, “ENDOMORPHIN-2, TETRAPEPTIDE DERIVATIVES THEREOF, AND USES THEREOF” (priority 2016, published 2019)
# Non-standard residues stand in square brackets, D forms with d. pGlu = O=C1CC[C@@H](C(=O)O)N1
# Tests used:
# Format in all cases: in vivo, human
# [1] = tested on: arthritic pain in upper back; experiment: Example 20: analgesic effect on arthritic pain of upper back, topical
# Experimental: A subject had arthritic pain in their upper back and associated paresthesia of their fingers, described as feelings of tingling and “pins and needles”. These symptoms had been present for about 1 year. […] Pain relief lasted for 10-12 hours. […] Repeated applications for 10-12 days gave the same results.
# [2] = tested on: severe migraine; experiment: Example 12: analgesic effect on severe migraine headache, topical; settings: 1% (w/v) in WEP442, topical
# Experimental: One day, at approximately 8 AM, visual aura and pain in the frontal scalp, forehead and frontal sinuses began and became very severe within 5-10 minutes. Thereafter, the subject topically applied a composition containing 1% (w/v) N-Ac-Tyr-Pro-Phe-Phe-NH2(SEQ ID NO: 23) in WEP442 to the involved area. […] Three (3) days later they remained free of any migraine headache and symptoms.
# [3] = tested on: intense headaches; experiment: Example 33: analgesic effect on recurring headaches, topical; settings: 0.8% (w/v) in EP73, topical
# Experimental: A subject with intense headaches after several hours of using a computer in their work as a real estate agent, topically applied to the forehead and temporal areas a composition containing 0.8% (w/v) of N-Ac-Tyr-Pro-Phe-Phe-NH2 (SEQ ID NO: 23)0 in EP73, formulated as described in Example 2. […] Such headaches, occurring 1-2 times weekly, were treated in the same manner over a 2 month interval, with headache pain being relieved each time.
# [4] = tested on: pain from MTSS; experiment: Example 22: analgesic effect on medial tibial stress syndrome, topical
# Text: A small statured person, caretaker of an over-weight disabled elderly person, every evening suffers pain from MTSS of the left lower leg that is due to repeated use of the left leg to lift their patient throughout the day. Their sleeping has been repeatedly disturbed by the pain. […] They followed this sequence of procedures daily for one week work shift with the same result of rapid absolute relief of pain. During the week of being off from work, the MTSS is absent.
# [5] = tested on: traumatized right big toe; experiment: Example 34: analgesic effect on pain in big toe following trauma, topical; settings: 1% (w/v) in WEP442, topical
# Experimental: A subject, traumatized their right big toe while repositioning heavy furniture, and experienced disabling persistent pain of that toe. About 10 minutes after the trauma occurred, they topically applied a composition containing 1% (w/v) of N-Ac-Tyr-Pro-Phe-Phe-NH2 (SEQ ID NO: 23) in WEP442 to the toe.
# [6] = tested on: sore subcutaneous lipomas; experiment: Example 35: analgesic effect on soreness of subcutaneous lipomas, topical; settings: 1% (w/v) in WEP442, topical
# Text: A subject with many subcutaneous lipomas on their arms, torso and thighs that often become painfully sore after being bumped against objects during the course of daily activities, topically applied to tenderly sore lipomas a composition containing 1% (w/v) N-Ac-Tyr-Pro-Phe-Phe-NH2 (SEQ ID NO: 23) in WEP442. Such applications were repeated multiple times over a period of two months.
# [7] = tested on: chronic knee pain; experiment: Example 46: analgesic effect on chronic knee pain from post-trauma, topical; settings: 1% (w/v) in WEP442, topical
# Text: Onset of pain occurred in adulthood […], worsening to a level that compromised their performance as a hospital nurse.
# [8] = tested on: stress headaches; experiment: Example 69: analgesic effect on repeating stress headaches, topical; settings: 0.5% (w/v) in WEP442, topical, 5-6 headaches over 3 weeks
# Text: A person had repeated stress headaches for several months. Such headaches had been relieved, or partially relieved, by over-the-counter medication.
# [9] = tested on: severe osteoarthritis of both knees; experiment: Example 17: analgesic effect on osteoarthritic knees, sublingual powder; settings: powder 50 mg under the tongue
# Experimental: A subject had severe osteoarthritis of both knees with pain, inflammation and edema for four years. The subject underwent prior therapy, including intra-articular injections of corticosteroids and hyaluronic acid as well as celecoxib (Celebrex), administered orally (200 mg) twice daily. Such therapy provided only mild transitory relief of knee pain and edema, and edema of the lower legs.
# The subject administered N-Pg-Tyr-Pro-Phe-Phe-NH2 (SEQ ID NO: 44) powder (50 mg) under the tongue (sublingually), which dissolved in saliva and absorbed slowly for about 30 minutes. […] The analgesic effect lasted for about 2 hours. The analgesic effect was judged to be about 4+ by clinical evaluation.
# Under the same conditions, N-Pa-Tyr-Pro-Phe-Phe-NH2 (SEQ ID NO: 64) powder provided an analgesic effect of about 3+ as judged by clinical evaluation. Also under the same conditions, N-Ac-Tyr-Pro-Phe-Phe-NH2 (SEQ ID NO: 23) powder provided an analgesic effect of about 3+ as judged by clinical evaluation. Repeated application of the tetrapeptide derivatives provided 4+ efficacy as judged by clinical evaluation.
# [10] = tested on: headache; experiment: Example 72: analgesic effect on migraine headache, topical; settings: 0.5% (w/v) in WEP442, topical
# Text: A subject who suffered from migraine headaches, woke up one morning with a headache, the type of which was uncertain. They topically applied to their forehead, periocular and temporal areas a composition containing 0.5% (w/v) of N-Pg-Tyr-Pro-Phe-Phe-NH2 (SEQ ID NO: 44) in WEP442.
# [11] = tested on: knee pain, bulging meniscus; experiment: Example 65: analgesic effect on pain from bulging sub-patellar meniscus, topical; settings: 0.6% (w/v) in WEP442, topical
# Text: A landscape worker slipped on the grass and twisted their right knee, which became too painful for them to walk on without physical support. […] Surgical corrective procedures were scheduled for 2 weeks later. In the meantime, topical applications of the above solution as needed allowed them to move about with no discomfort.
# [12] = tested on: restless leg syndrome; experiment: Example 75: treatment of restless leg syndrome, topical; settings: 1% (w/v) in WEP442, topical to legs after an episode
# Text: Restless leg syndrome (RLS) is a disorder in which involuntary movements of the legs occur during the sleeping hours. A subject, presented with RLS for a duration of about 4 years. The disorder in the subject had not responded to therapy with opiates, nor to a benzodiazepine medication.
# [13] = tested on: headache; experiment: Example 65: analgesic effect on headache, topical; settings: 0.6% (w/v) in WEP442, topical
# Text: Several days after the incident causing the injury, they developed a bothersome headache, concentrated to the temporal areas.
compound,measurement,setting,value
CC(=O)N[C@@H](Cc1ccc(O)cc1)C(=O)N1CCC[C@H]1C(=O)N[C@@H](Cc1ccccc1)C(=O)N[C@@H](Cc1ccccc1)C(N)=O [N-Ac-Tyr-Pro-Phe-Phe-NH2],pain relief,"[1]; 1% (w/v) in WEP442, daily topical to upper back",relieved the upper back pain completely
same,duration of pain relief,"[1]; 1% (w/v) in WEP442, topical",10 to 12 h
same,time to pain relief,"[1]; 1% (w/v) in WEP442, topical",3 to 4 min
same,paresthesia of the fingers,"[1]; 1% (w/v) in WEP442, topical to upper back",persisted without any discernible change
same,relief of migraine pain and all other symptoms,[2],suddenly disappeared completely
same,time free of migraine headache and symptoms,[2],≥ 3 days
same,time to pain relief,[2],6 to 7 min
same,pain relief,[3],Complete headache relief
same,time to pain relief,[3],≤ 1 min
same,pain relief,"[4]; 1% (w/v) in WEP442, single topical application",completely relieved the pain
same,duration of pain relief,"[4]; 1% (w/v) in WEP442, topical",No pain occurred until the next evening
same,time to pain relief,"[4]; 1% (w/v) in WEP442, topical",≤ 1 min
same,pain relief,[5],Complete relief of pain
same,recurrence,[5],did not return
same,time to pain relief,[5],15 to 30 s
same,time to relief,[6],≤ 1 min
same,relief of soreness,[6]; repeated over two months,relieved all feelings of soreness
same,duration of absence of pain,[7],8 h
same,pain relief,[7],complete absence of pain
N-Pg-Tyr-Pro-Phe-Phe-NH2 ([pGlu]YPFF-NH2; SMILES NC(=O)[C@H](Cc1ccccc1)NC(=O)[C@H](Cc1ccccc1)NC(=O)[C@@H]1CCCN1C(=O)[C@H](Cc1ccc(O)cc1)NC(=O)[C@@H]1CCC(=O)N1),headache relief,[8],completely relieved almost immediately
same,analgesic effect by clinical evaluation,[9],4+ (4+ (90-100%): complete relief or eradication of pain for more than 4 hours)
same,duration of analgesic effect,[9],about 2 hours
same,pain relief,[9],the pain disappeared
same,time to pain relief,[9],≤ 20 min
same,headache relief,[10],promptly relieved and did not return
same,duration of pain relief,[11],lasted throughout the working day
same,pain relief,[11],complete relief of pain
same,time to pain relief,[11],3 to 4 min
same,involuntary leg movement,[12],completely prevented further involuntary leg movement
same,headache relief,[13],"almost immediate, complete relief of the headache"
